Experiments:
human SCD1 = human SCD1 (Homo sapiens (Human), UniProt O00767); assay: Yeast growth assay, strain expressing human SCD1 as the sole desaturase (reduced growth as surrogate for SCD inhibition); assay type: cell-based; conditions: yeast with OLE1 deleted expressing human SCD1 from a plasmid; growth read as OD600 after 40 h at 30° C.; top drug concentration 33.3 μM
Method in brief: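 Human SCD1 or SCD5 expressed from a plasmid in OLE1-deleted yeast as the sole desaturase. Cells washed free of Tween and fatty acids, grown with compound in SD-Ura glucose medium 40 h at 30 °C; growth measured as OD600, reduced growth taken as SCD inhibition.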

human SCD5 = human SCD5 (Homo sapiens (Human), UniProt Q86SK9); assay: Yeast growth assay, strain expressing human SCD5 as the sole desaturase (reduced growth as surrogate for SCD inhibition); assay type: cell-based; conditions: yeast with OLE1 deleted expressing human SCD5 from a plasmid; growth read as OD600 after 40 h at 30° C.; top drug concentration 33.3 μM
Chain of human SCD5 (Q86SK9 whole entry): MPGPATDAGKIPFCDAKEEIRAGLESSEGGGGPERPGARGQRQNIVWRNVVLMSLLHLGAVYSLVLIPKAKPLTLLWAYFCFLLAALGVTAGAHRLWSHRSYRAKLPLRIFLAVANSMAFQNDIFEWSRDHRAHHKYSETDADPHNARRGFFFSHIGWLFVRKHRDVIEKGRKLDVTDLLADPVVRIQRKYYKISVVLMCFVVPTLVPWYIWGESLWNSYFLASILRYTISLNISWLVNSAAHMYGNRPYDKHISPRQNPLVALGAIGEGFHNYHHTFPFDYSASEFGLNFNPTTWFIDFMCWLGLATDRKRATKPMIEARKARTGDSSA
Description: Strains expressing SCD1 or SCD5 as the sole desaturase, the human SCD1 and SCD5 genes were used to evaluate inhibition of SCD1/SCD5 using reduced growth as a surrogate for SCD inhibition. These yeast strains express human SCD1 or SCD5 from a plasmid harbored in a strain in which the yeast OLE1 gene is deleted.
All compound profiling experiments were performed using the same basic protocol. Yeast were cultured using standard techniques in complete synthetic media lacking uracil and containing yeast nitrogen base supplemented with 2% (w/v) glucose (SD-Ura) Starter cultures were inoculated in 3 mL SD-Ura media containing 0.01% tween and 0.2 mM palmitoleic and oleic acid. Cultures were incubated overnight in a 30° C. shaker incubator (225 rpm). Saturated morning cultures were centrifuged, washed in SD-Ura media lacking TWEEN-20 and fatty acids, and then diluted 1:20 in fresh SD-Ura media also lacking TWEEN-20 and fatty acids.
Compound administration was performed in two separate steps. First, 15 μL of SD-Ura was dispensed into clear 384-well assay plates using a MULTIDROP™ Combi reagent dispenser. […] The cultures described above were centrifuged and washed with media lacking TWEEN-20 or oleic and palmitoleic acids.
After yeast delivery, assay plates were incubated under humidified conditions at 30° C. for 40 h. Yeast growth was monitored by reading the OD600 of each well using a microplate reader (Perkin Elmer EnVision™).

Chain of human SCD1 (O00767 whole entry): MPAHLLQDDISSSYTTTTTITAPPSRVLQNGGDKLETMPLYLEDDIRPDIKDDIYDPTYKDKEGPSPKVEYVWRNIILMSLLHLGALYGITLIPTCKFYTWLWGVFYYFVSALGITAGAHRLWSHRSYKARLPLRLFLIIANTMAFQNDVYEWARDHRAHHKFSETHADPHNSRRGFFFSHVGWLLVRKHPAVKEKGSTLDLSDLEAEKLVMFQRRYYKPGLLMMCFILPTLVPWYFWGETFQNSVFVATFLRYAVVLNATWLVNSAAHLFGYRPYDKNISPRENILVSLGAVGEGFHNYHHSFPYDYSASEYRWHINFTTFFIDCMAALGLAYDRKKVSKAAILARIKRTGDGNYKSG

Compound | IC50 (human SCD1) [µM] | IC50 (human SCD5) [µM]
O=C(Nc1ccccc1)C1CCCN1C(=O)c1cc(-c2ccc3c(c2)OCO3)on1 (stereo not drawn) [Compound 455] | > 45 | > 45
COc1ccc(C2CCCN2C(=O)c2cc(-c3ccccc3)on2)cc1 (stereo not drawn) [Compound 377] | > 45 | > 45
O=C(Nc1cnn(CC2CCOC2)c1)c1cc(-c2ccccc2)on1 (stereo not drawn) [Compound 50] | 25.5 | > 45
Nc1cc(C(=O)Nc2cnn(Cc3ccccc3)c2)no1 [Compound 192] | > 45 | > 45
N#Cc1cc(C(=O)Nc2cnn(Cc3cccc(F)c3)c2)no1 [Compound 169] | > 45 | > 45
O=C(c1cc(-c2ccc3c(c2)OCO3)on1)N1C[C@H](O)C[C@H]1c1ccccc1 [Compound 422] | > 45 | > 45
COc1ccc(C2CCCN2C(=O)c2cc(-c3ccc(C(F)(F)C(F)(F)F)cc3)on2)cc1 (stereo not drawn) [Compound 392] | > 45 | > 45
O=C(c1cc(-c2ccnnc2)on1)N1CCC[C@H]1c1ccccc1 [Compound 433] | 36.8 | > 45
O=C(c1cc(-c2ccccc2)on1)N1CC(c2ccccc2)C1 [Compound 212, (3-phenylazetidin-1-yl)-(5-phenylisoxazol-3-yl)methanone] | 4.52 | 1.62
Cc1nn(Cc2ccccc2)c(C)c1NC(=O)c1cc(-c2ccco2)on1 [Compound 2] | 32.8 | 38.6
O=C(Nc1noc(Cc2ccccc2)n1)c1cc(-c2ccccc2)on1 [Compound 79] | > 45 | > 45
Cc1ccncc1Cn1cc(NC(=O)c2cc(-c3ccccc3F)on2)cn1 [Compound 172] | > 45 | > 45
COc1cccnc1C1CCCN1C(=O)c1cc(-c2ccc3c(c2)OCO3)on1 (stereo not drawn) [Compound 437] | > 45 | > 45
O=C(c1cc(-c2ccn3ncnc3c2)on1)N1CCC[C@H]1c1ccccc1 [Compound 432] | 40 | > 45
COc1ccncc1Cn1cc(NC(=O)c2cc(-c3ccccc3F)on2)cn1 [Compound 173] | > 45 | > 45
O=C(c1cc(-c2ccccc2)on1)N1CCC(c2ccccc2)CC1 [Compound 314, (5-phenylisoxazol-3-yl)(4-phenylpiperidin-1-yl)methanone] | > 45 | 1.63
CCOc1ccc(-c2cc(C(=O)N3CCC[C@H]3c3ccccc3)no2)cc1F [Compound 443] | > 45 | > 45
O=C(c1noc2c1CCCC2)N1CC(c2ccccc2)C1 [Compound 252, 3-(3-phenylazetidine-1-carbonyl)-4,5,6,7-tetrahydro-1,2-benzoxazole] | > 45 | 7.5
CS(=O)(=O)CCC(c1ccccc1)n1cc(NC(=O)c2cc(-c3ccccc3)on2)cn1 (stereo not drawn) [Compound 75] | > 45 | > 45
Cn1cc(NC(=O)c2cc(-c3ccco3)on2)cn1 [Compound 10] | > 45 | > 45
N#Cc1ccc(Cn2cc(NC(=O)c3cc(-c4ccccc4)on3)cn2)nc1 [Compound 63] | > 45 | > 45
CC(C)c1cc(C(=O)N2CC(c3ccccc3)C2)no1 [Compound 250] | > 45 | > 45
Cc1nn(C)c2cc(-c3conc3CN3C(=O)OCC3c3ccccc3)ccc12 (stereo not drawn) [Compound 464] | > 45 | > 45
COc1cc(C2CCCN2C(=O)c2cc(-c3ccc4c(c3)OCO4)on2)on1 (stereo not drawn) [Compound 411] | 30 | > 45
